Experimental data reported in patent publication US20240208930A1, “CRYSTALLINE FORM OF SPHINGOSINE-1-PHOSPHATE RECEPTOR AGONIST” (LG CHEM, LTD., priority 2021, published 2024).
Entries after “also recorded” stand apart in the source; their conditions may differ.

Experiments:
[1] = Stability test (XRPD, naked eye observation, HPLC) after storage under accelerated and severe conditions; format: physicochemical
Procedure: To investigate the stability of Crystalline Form A, after storage for 2 weeks under accelerated (40° C./75% RH) and severe (80° C.) conditions, the physical stability was confirmed by naked eye observation and XRD measurement (FIG. 7), and chemical stability was confirmed by the analysis of the sample purity using HPLC (Table 3). HPLC equipment and analysis methods are represented in Table 1.
A stability test was carried out in the same manner as in Example 2. • (5) Results

[2] = DVS (dynamic vapor sorption); format: physicochemical
Procedure: Moisture sorption/desorption data were collected on a DVS Intrinsic instrument (Surface Measurement Systems). Samples were not dried prior to analysis. Sorption and desorption data were collected over the range of 5% to 95% RH with 10% RH increments under nitrogen. The equilibrium criterion used in the analysis was less than 0.0100% change in weight in 5 minutes with a maximum equilibration time of 3 hours. Data on the initial moisture content of the samples were not corrected. The results are represented in FIG. 6.

[3] = severe condition (80° C.), 2 weeks

| SMILES | change in the crystal form in XRPD ([1]; 2 weeks, accelerated (40° C./75% RH) and severe (80° C.) conditions) | physical/chemical stability ([1]; 2 weeks, accelerated (40° C./75% RH) and severe (sealed state, 80° C.) conditions) | XRPD pattern of the solid retrieved after DVS [2] | time physically stable ([1]; 80° C.) | sample purity using HPLC ([1]; Accelerated condition (40° C./75% RH), 1 week) [%] | sample purity using HPLC ([1]; Accelerated condition (40° C./75% RH), 2 weeks) [%] | sample purity using HPLC ([1]; Accelerated condition (40° C./75% RH), 3 days) [%] | sample purity using HPLC ([1]; Initial) [%] | sample purity using HPLC ([1]; Severe condition (80° C.), 1 week) [%] | sample purity using HPLC ([1]; Severe condition (80° C.), 3 days) [%] | naked eye observation ([1]; after 2 weeks of severe condition (80° C.)) | amount of impurities in the sample [1, 3] | sample purity using HPLC [1, 3] [%] |
| --- | --- | --- | --- | --- | --- | --- | --- | --- | --- | --- | --- | --- | --- |
| CC(C)n1nc(Cl)c2cc(COc3ccc4c(c3)CCC(CN3CCC(C(=O)O)CC3)=C4Cl)ccc21 [Crystalline Form A, 1-[1-chloro-6-(3-chloro-1-isopropyl-1H-indazol-5-ylmethoxy)-3,4-dihydro-naphthalen-2-ylmethyl]-piperidine-4-carboxylic acid] | no change in the crystal form | physically/chemically stable; also recorded: physical/chemical stability was confirmed | XRPD patterns similar to the initial ones |  |  |  |  |  |  |  |  |  |  |
| CC(C)n1nc(Cl)c2cc(COc3ccc4c(c3)CCC(CN3CCC(C(=O)O)CC3)=C4Cl)ccc21 [amorphous form, 1-[1-chloro-6-(3-chloro-1-isopropyl-1H-indazol-5-ylmethoxy)-3,4-dihydro-naphthalen-2-ylmethyl]-piperidine-4-carboxylic acid] |  |  |  | at least 2 weeks | 98.1 | 98.8 | 98.8 | 100.7 | 87.2 | 90.7 | free-flowing particles that were broken when struck and bubble-like yellow masses | increased | 77.3 |
